# Results: patent US9181189B2, “Lipogenesis inhibitor compounds” (PIERRE FABRE DERMO-COSMETIQUE, priority 2011, dated 2015)
# Key:
# [1] = test system: differentiated sebocytes (Tel-E6E7 line); assay: Production of intracellular lipids by differentiated sebocytes (Nile Red / Adipored quantitation); assay type: cell-based, human; settings: for production of lipids by the sebocytes: Tel-E6E7 line differentiated 7 days in the presence of testosterone and other supplements, FIG. 1; for inhibitor effect on lipogenesis directly induced by DHT: Tel-E6E7 line differentiated in the presence of DHT and other supplements, FIG. 2
# Experimental: The Tel-E6E7 line (courtesy of Dr. Stephen Lyle, University of Massachusetts, USA) is a human epithelial line derived from stem cells of the hair follicle bulb.
# Differentiation into sebocytes of the Tel-E6E7 line was conducted under the conditions described by S. Lyle. The cells were seeded in 24-well plates at a density of 25 000 cells/cm^2 in DME medium supplemented with 46% HamF12 medium, 6% foetal calf serum (FCII, Hyclone), 2% human serum and 10 nM EGF. Two days after seeding, the differentiation of the cells into sebocytes was induced by adding the following supplements to the culture medium: 0.1 μM testosterone (or DHT (0.1 μM)), 1 μM Troglitazone, 100 μM WyA4643 and 10 nM Insulin. The derivatives to be tested were added at the same time. Sebocyte differentiation was continued for 7 days. The culture medium and the derivatives to be tested were renewed every 2-3 days. The production of intracellular lipids was measured by quantitation of the Nile Red marker (Adipored kit, Lonza) and following the manufacturer's instructions. The amount of measured fluorescence (Relative Fluorescence Units) is proportional to the quantity of accumulated neutral intracellular lipids. All tested conditions were performed in duplicate and repeated three times.
# The inventors studied the variations in lipid levels produced by the sebocytes after a differentiation time of 7 days in the presence of testosterone treated with the derivatives of the present invention.
# type-1 5-α-reductase = target: T1, type-1 5-α-reductase (Homo sapiens, UniProt P18405); settings: fibroblast cultures; cited from earlier work
# T1 construct: endogenous in cells
# T1 sequence (P18405 1-259): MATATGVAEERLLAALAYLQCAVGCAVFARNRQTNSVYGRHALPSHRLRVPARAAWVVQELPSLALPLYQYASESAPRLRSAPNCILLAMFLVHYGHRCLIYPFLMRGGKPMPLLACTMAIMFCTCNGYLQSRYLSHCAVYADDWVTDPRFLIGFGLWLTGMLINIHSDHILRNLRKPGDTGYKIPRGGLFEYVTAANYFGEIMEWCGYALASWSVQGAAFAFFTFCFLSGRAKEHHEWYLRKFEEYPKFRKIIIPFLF
SMILES,production of lipids by the sebocytes ([1]; 10 μM),production of lipids by the sebocytes ([1]; 5 μM),inhibiting effect on type-1 5-α-reductase (type-1 5-α-reductase),inhibitor effect on lipogenesis directly induced by DHT [1]
CCCCCCCCCCCC(=O)OCC(O)COC(=O)C1CCCNC1 (centres unmarked) [3-(dodecanoyloxy)-2-hydroxypropyl piperidine-3-carboxylate],significant decrease,,,
"CCCCCCCCCCCC(=O)OCC(O)COC(=O)c1cccnc1 (centres unmarked) [glyceryl laurate nicotinate, 3-(dodecanoyloxy)-2-hydroxypropyl nicotinate]",decreases most significantly,decreases most significantly,,
"CCCCCCCCCCCC(=O)OCC(O)CO (centres unmarked) [glyceryl laurate, 2,3-dihydroxypropyl dodecanoate]",does not reach the significance threshold,does not reach the significance threshold,inhibiting effect,
O=C(O)c1cccnc1 [nicotinic acid],,,,do not show any inhibitor effect
O=C(O)C1CCCNC1 (centres unmarked) [nipecotic acid],,,,do not show any inhibitor effect
